≈ marks a conversion by molar mass, not a printed value. Values belong to the compound of their own block, whether it stands above or below them.
Legend:
Escherichia coli [1] = experiment: Antibacterial activity against NDM-1-producing Escherichia coli RC0089 incubated for 16 to 20 hrs in presence of meropenem CLSI-based assay; format: functional; details: time 16-20 hrs
Escherichia coli [2] = experiment: Synergistic activity against NDM-1-producing Escherichia coli RC0089 assessed as fractional inhibition concentration index in presence of meropenem by CLSI-based assay; format: functional
[3] = Binding affinity to bacterial Metallo-beta-lactamase IMP-1 (unknown origin) using FC5 as substrate preincubated for 15 min followed by substrate addition by fluorescence based assay; set-up: species or system Bacteria
Klebsiella pneumoniae = experiment: Antibacterial activity against IMP-type producing Klebsiella pneumoniae LC 82 clinical isolate in presence of imipenem; format: functional
[4] = Cytotoxicity against human HEK293 cells assessed as cell viability >533 uM relative to control; format: toxicity, cell-based; details: read-out: Activity
[5] = target: T1, Metallo-beta-lactamase type 2 (Bacteria, UniProt C7C422); experiment: Binding affinity to bacterial NDM-1 (unknown origin) assessed as inhibition constant; details: read-out: Ki
T1 sequence (C7C422 whole entry): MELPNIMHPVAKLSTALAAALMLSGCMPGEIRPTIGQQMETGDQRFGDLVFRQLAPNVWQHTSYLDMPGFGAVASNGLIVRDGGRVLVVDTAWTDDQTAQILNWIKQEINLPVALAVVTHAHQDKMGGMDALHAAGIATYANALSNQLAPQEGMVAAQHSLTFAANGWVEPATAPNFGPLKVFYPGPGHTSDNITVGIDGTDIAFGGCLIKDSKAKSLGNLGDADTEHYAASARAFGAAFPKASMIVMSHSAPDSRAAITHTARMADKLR

[6] = Binding affinity to bacterial Metallo-beta-lactamase IMP-1 (unknown origin) assessed as inhibition constant; set-up: species or system Bacteria
Beta-lactamase NDM-1 = Beta-lactamase NDM-1 (Escherichia coli, UniProt E5KIY2); experiment: Inhibition of NDM-1 in Escherichia coli assessed as reduction in imipenem hydrolytic activity
Chain of Beta-lactamase NDM-1 (E5KIY2 whole entry): as the sequence (C7C422 whole entry) above

Proteus mirabilis = experiment: Antibacterial activity against IMP-type producing Proteus mirabilis UNC KPC 170 clinical isolate in presence of imipenem; format: functional
[7] = Cytotoxicity against mouse L929 cells assessed as cell viability >533 uM relative to control; format: toxicity, cell-based; details: read-out: Activity
[8] = target: Metallo-beta-lactamase VIM-2 (Pseudomonas aeruginosa, UniProt D1MEN9); experiment: Binding affinity to Metallo-beta-lactamase VIM-2 assessed as inhibition constant
Enterobacter sp. = experiment: Antibacterial activity against IMP-type producing Enterobacter sp. 42713 clinical isolate in presence of imipenem; format: functional
[9] = target: T1, Metallo-beta-lactamase type 2; experiment: Inhibition of bacterial NDM-1 (unknown origin) using nitrocefin as substrate incubated for 10 mins followed by substrate addition by absorbance based assay
Beta-lactamase VIM-1 = Beta-lactamase VIM-1 (Bacteria, UniProt Q8GDC1); experiment: Binding affinity to bacterial Metallo-beta-lactamase VIM-1 (unknown origin) assessed as dissociation constant
Enterobacteriaceae [10] = experiment: Antibacterial activity against NDM-1-producing Enterobacteriaceae; format: functional
[11] = target: T1, Metallo-beta-lactamase type 2; experiment: Binding affinity to wildtype bacterial NDM-1 (unknown origin) expressed in Escherichia coli BL21(DE3) cells assessed as dissociation constant
[12] = target: T1, Metallo-beta-lactamase type 2; experiment: Inhibition of wildtype bacterial NDM-1 (unknown origin) expressed in Escherichia coli BL21(DE3) cells using nitrocefin as substrate incubated for 20 mins by absorbance based assay
[13] = Cytotoxicity against human HeLa cells incubated for 24 hrs by PrestoBlue reagent based assay; format: toxicity, cell-based
[14] = Inhibition of bacterial Metallo-beta-lactamase GIM-1 using nitrocefin as substrate; set-up: species or system Bacteria
[15] = Cytotoxicity against human HepG2 cells incubated for 24 hrs by AlamarBlue-based assay; format: toxicity, cell-based
Acinetobacter baumannii = experiment: Antibacterial activity against MBL-producing Acinetobacter baumannii assessed as diameter of inhibition zone in presence of imipenem; format: functional
[16] = Inhibition of Acinetobacter baumannii Metallo-beta-lactamase IMP-1
[17] = Inhibition of Acinetobacter baumannii recombinant NDM-1 using nitrocefin as substrate preincubated for 10 mins followed by substrate addition by spectrophotometric analysis
Enterobacteriaceae [18] = experiment: Synergistic antibacterial activity against NDM-1-producing Carbapenem-resistant Enterobacteriaceae assessed as fractional inhibitory concentration index in presence of meropenem; format: functional
[19] = target: T1, Metallo-beta-lactamase type 2; experiment: Binding affinity to bacterial NDM-1 (unknown origin) using nitrocefin as substrate assessed as inhibition constant
[20] = Cytotoxicity against human HEK293 cells incubated for 24 hrs by MTT assay; format: toxicity, cell-based
[21] = target: T1, Metallo-beta-lactamase type 2; experiment: Inhibition of bacterial NDM-1 (unknown origin) using nitrocefin as substrate

MIC (Escherichia coli [1]): 16 µg/mL
IC50 [3]: 0.14 µM
SMILES: CC(C)c1cccc2c(-c3ccc(F)cc3)c(C(=O)O)[nH]c12
fractional inhibitory concentration index (FICI) (Escherichia coli [2]): 0.258

SMILES: CCOC(=O)[C@]1(CS)N[C@@H](C(=O)O)C(C)(C)S1
MIC (Klebsiella pneumoniae): 0.5 µg/mL
viability at 533 µM [4]: 85%
Ki [5]: 0.6 µM
Ki [6]: 2 µM
IC50 (Beta-lactamase NDM-1): 10 µM
MIC (Proteus mirabilis): 8 µg/mL
viability [7]: 85%
Ki [8]: 1.9 µM
MIC (Enterobacter sp.): 8 µg/mL

IC50 [9]: 0.38 µM
SMILES: O=C(O)c1cccc2oc(-c3ccc4cc(OCc5ccccc5)ccc4c3O)nc12

IC50 [9]: 7.6 µM
SMILES: O=C(Cc1ccccc1)N[C@@H]1C(=O)N2C(C(=O)O)=C(CSc3cccc[n+]3[O-])CS[C@H]12

Kd (Beta-lactamase VIM-1): < 0.88 µM
SMILES: O=C1C(SCCCS)CCN1c1ccccc1 (stereo not given)

MIC50 (Enterobacteriaceae [10]): 32 µM (≈ 15.1 µg/mL)
Kd [11]: 11.8 µM
IC50 [12]: 12.1 µM
SMILES: CC1=C[C@@]2(C)[C@@H](/C(C)=C/[C@]3(C)O[C@H](C)[C@@]4(C)O[C@H]43)[C@](C)([C@@H](O)[C@@H](C)C(=O)C(C)C)[C@H]2[C@]2(C)O[C@H]12

SMILES: COP(=O)(CCSC(C)=O)N(C)Cc1ccccn1 (racemic)
IC50 at 24 h [13]: > 500 µM
IC50 [14]: 109 µM

SMILES: CN(C[C@H](O)[C@@H](O)[C@H](O)[C@H](O)CO)C(=O)c1ccc(CN(Cc2ccccn2)Cc2ccccn2)nc1
IC50 at 24 h [15]: > 100 µM

IC50 [16]: 93.7 µM
SMILES: Oc1ccccc1/C=N/c1cccnc1/N=C/c1ccccc1O
diameter of the inhibition zone (DIZ) (Acinetobacter baumannii): 23 mm

IC50 [17]: 24 µM
SMILES: CC1=C(CO)C(=O)O[C@@H]([C@@H](C)[C@H]2CC[C@H]3[C@@H]4C[C@H]5O[C@]56[C@@H](O)C=CC(=O)[C@]6(C)[C@H]4CC[C@]23C)C1 [WITHAFERIN A]

SMILES: COC(=O)[C@H]1CN(C(=O)CN(Cc2ccccn2)Cc2ccccn2)C[C@@H]1c1ccc(OCc2ccccc2)c(OC)c1 (racemic)
fractional inhibitory concentration index (FICI) (Enterobacteriaceae [18]): 0.01
Ki [19]: 4.6 µM
IC50 at 24 h [20]: > 128 µM
IC50 [21]: 51 µM

IC50 [16]: 83.7 µM
SMILES: Oc1ccc(Br)cc1/C=N/c1cccnc1/N=C/c1cc(Br)ccc1O
diameter of the inhibition zone (DIZ) (Acinetobacter baumannii): 25 mm
